Source: patent US11459338B2, “Heterocyclic compounds as PRMT5 inhibitors” (JUBILANT EPISCRIBE LLC, priority 2018, dated 2022)

Tests used:
PRMT5/MEP50 = target: T1, PRMT5/MEP50 (Homo sapiens, UniProt O14744); assay: PRMT5/MEP50 enzyme assay on peptide substrates (3H-SAM Flashplate); assay type: biochemical; conditions: PRMT5/MEP50 10 nM, H4 1-15aa peptide 100 nM, 3H-SAM 1 μM
T1 construct: Full-length human PRMT5 (NP_006100)
Text: General materials like S-adenocylmethionine (SAM), S-adenosylhomocysteine (SAH), Tris-HCl, DTT, […] (BSA) and Tween-20 were purchased from Sigma-Aldrich. 3H-SAM and 384-well streptavidin Flashplates were purchased from Perkin Elmer. Substrates that were used were Peptide representative of human Histone 4 residues 1-15 which was purchased from Rockland antibodies and assays.
PRMT5/MEP50 Enzyme assay on Peptide Substrates.
The assays were all performed in a buffer consisting of 50 mMTris-HCl, pH 8, 1 mM DTT, 0.01% BSA, 0.01% Tween-20, prepared on the day of use. Test compounds were diluted 3-fold in assay buffer (final DMSO concentration of 1%) and added into a 384-well OptiPlate (PerkinElmer, #6007290). A cocktail (10 μL) of PRMT5/MEP50 enzyme and the peptide was added to the wells. The compounds were allowed to incubate with PRMT5/MEP50 for 30 min at room temperature, then 5 μL of ^3H-SAM was added to initiate the reaction. The final concentrations of the components were as follows: PRMT5/MEP50-10 nM, H4, 1-15aa peptide-100 nM, ^3H-SAM-1 μM. The assays were stopped by the addition of 1 mM SAH. 25 μL of the reaction from the 384-well OptiPlate was then transferred to a 384-well Flashplate and the biotinylated peptides were allowed to bind to the streptavidin surface for at least 1 h, before being washed twice with 50 mMTris-HCl, pH 8, 0.1% Tween-20. The plates were then read in a PerkinElmer Topcount plate reader to measure the quantity of ^3H-labeled peptide bound to the Flashplate surface measured as disintegrations per minute (dpm), also referred to as counts per minute (cpm).
The IC50 values were calculated using a 4-parameter variable slope fit algorithm (cpm—counts per minute, cmpd—signal in assay well, and cpmmax and cpmmin mare the respective minimum and maximum signal controls).

Z-138 cells = assay: Z-138 long term proliferation assay (Cell Titer Glo); assay type: cell-based; conditions: Homo sapiens, 192 h; Z-138 cells, cell viability, day 8; read-out: PRMT5 Z138 GI50 Day 8 μM
Experimental: A compound source plate was prepared by performing ten-point 3-fold dilution in DMSO, such that the final top concentration of the compound was 10 μM, and DMSO was 0.3%. The total volume of compounds added was 20 μL. The cells were incubated for 96 h at 37° C., 5% CO2. […] The cells were re-treated with the compounds and incubated for an additional four days. Cell viability was measured on both day 4 and day 8, by adding 25 μL of Cell Titer Glo reagent to an equal volume of cell suspension. Luminescence was read on a PerkinElmer Victor3 multiplate reader. The concentration of compound inhibiting cell viability by 50% was determined using a 4-parameter, variable slope fit of the normalized dose response curves.

T1 sequence (O14744 whole entry): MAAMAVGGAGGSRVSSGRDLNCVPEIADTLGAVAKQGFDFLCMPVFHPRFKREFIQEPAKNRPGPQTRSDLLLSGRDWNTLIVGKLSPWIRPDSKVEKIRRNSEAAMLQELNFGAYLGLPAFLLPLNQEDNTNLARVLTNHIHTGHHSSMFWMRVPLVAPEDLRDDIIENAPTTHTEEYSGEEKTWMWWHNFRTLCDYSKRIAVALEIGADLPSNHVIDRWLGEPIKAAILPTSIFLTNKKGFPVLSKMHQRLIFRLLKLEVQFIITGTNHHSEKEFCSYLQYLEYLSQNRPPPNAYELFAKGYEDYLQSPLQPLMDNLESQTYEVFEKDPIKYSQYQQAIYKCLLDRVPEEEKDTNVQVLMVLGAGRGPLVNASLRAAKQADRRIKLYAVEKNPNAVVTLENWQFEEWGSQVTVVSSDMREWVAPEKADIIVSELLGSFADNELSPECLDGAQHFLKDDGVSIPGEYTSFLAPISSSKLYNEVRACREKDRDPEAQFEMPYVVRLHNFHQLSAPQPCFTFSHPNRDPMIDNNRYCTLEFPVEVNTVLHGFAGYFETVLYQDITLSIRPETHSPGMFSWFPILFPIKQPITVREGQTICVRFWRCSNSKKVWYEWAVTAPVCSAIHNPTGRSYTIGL
T1 sequence (Q9BQA1 whole entry partner): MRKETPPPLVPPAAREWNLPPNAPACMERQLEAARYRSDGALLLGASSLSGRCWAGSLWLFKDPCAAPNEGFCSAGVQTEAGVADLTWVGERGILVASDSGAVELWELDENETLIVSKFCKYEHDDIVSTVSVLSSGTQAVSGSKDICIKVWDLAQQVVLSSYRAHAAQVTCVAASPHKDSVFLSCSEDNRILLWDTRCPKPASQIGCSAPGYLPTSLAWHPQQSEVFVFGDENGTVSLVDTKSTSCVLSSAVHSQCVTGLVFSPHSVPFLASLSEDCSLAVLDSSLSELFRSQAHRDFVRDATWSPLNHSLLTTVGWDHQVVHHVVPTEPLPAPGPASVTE

| Structure (SMILES) | IC50 (PRMT5/MEP50) | GI50 (Z-138 cells) |
| --- | --- | --- |
| Cn1cc(-c2cn3cc(C(=O)NC[C@H](O)CN4CCc5ccccc5C4)nc3cn2)ccc1=O [Example 51, (S)—N-(3-(3,4-dihydroisoquinolin-2(1H)-yl)-2-hydroxypropyl)-6-(1-methyl-6-oxo-1,6-dihydropyridin-3-yl)imidazo[1,2-a]pyrazine-2-carboxamide] | 10 to 1000 nM | 10 to 1000 nM |
| CC(=O)N1CCC(c2cn3cc(C(=O)NC[C@H](O)CN4CCc5ccccc5C4)nc3cn2)CC1 [Example 52, (S)-6-(1-acetylpiperidin-4-yl)-N-(3-(3,4-dihydroisoquinolin-2(1H)-yl)-2-hydroxypropyl)imidazo[1,2-a]pyrazine-2-carboxamide] | 10 to 1000 nM | 10 to 1000 nM |
| O=C(NC[C@H](O)CN1CCc2ccccc2C1)c1cn2cc(C(F)(F)F)ncc2n1 [Example 53, (S)—N-(3-(3,4-dihydroisoquinolin-2(1H)-yl)-2-hydroxypropyl)-6-(trifluoromethyl)imidazo[1,2-a]pyrazine-2-carboxamide] | 10 to 1000 nM | 1000 to 5000 nM |
| Cc1c(C(=O)NC[C@H](O)CN2CCc3ccccc3C2)nc2ccc(C(F)(F)F)nn12 [Example 54, (S)—N-(3-(3,4-dihydroisoquinolin-2(1H)-yl)-2-hydroxypropyl)-3-methyl-6-(trifluoromethyl)imidazo[1,2-b]pyridazine-2-carboxamide] | 1000 to 5000 nM | 1000 to 5000 nM |
| Cc1cn2c(C)c(C(=O)NC[C@H](O)CN3CCc4ccccc4C3)nc2cn1 [Example 55, (S)—N-(3-(3,4-dihydroisoquinolin-2(1H)-yl)-2-hydroxypropyl)-3,6-dimethylimidazo[1,2-a]pyrazine-2-carboxamide] | 1000 to 5000 nM | 1000 to 5000 nM |
| Cc1ccc2nc(C(=O)NC[C@H](O)CN3CCc4ccccc4C3)cn2n1 [Example 56, (S)—N-(3-(3,4-dihydroisoquinolin-2(1H)-yl)-2-hydroxypropyl)-6-methylimidazo[1,2-b]pyridazine-2-carboxamide] | 1000 to 5000 nM | > 5000 nM |
| Cc1cn2cc(C(=O)NC[C@H](O)CN3CCc4ccccc4C3)nc2cn1 [Example 57] | 1000 to 5000 nM | 1000 to 5000 nM |
| O=C(NC[C@H](O)CN1CCc2ccccc2C1)c1cn2cc(N3CC(F)(F)C3)ncc2n1 [Example 58, (S)-6-(3,3-difluoroazetidin-1-yl)-N-(3-(3,4-dihydroisoquinolin-2(1H)-yl)-2-hydroxypropyl)imidazo[1,2-a]pyrazine-2-carboxamide] | 1000 to 5000 nM | 1000 to 5000 nM |
| O=C(NC[C@H](O)CN1CCc2ccccc2C1)c1cn2cc(N3CC(F)(F)C3)ccc2n1 [Example 59, (S)-6-(3,3-difluoroazetidin-1-yl)-N-(3-(3,4-dihydroisoquinolin-2(1H)-yl)-2-hydroxypropyl)imidazo[1,2-a]pyridine-2-carboxamide] | 1000 to 5000 nM | 1000 to 5000 nM |
| O=C(NC[C@H](O)CN1CCc2ccccc2C1)c1cc2nc(C(F)(F)F)ccn2n1 [Example 60, (S)—N-(3-(3,4-dihydroisoquinolin-2(1H)-yl)-2-hydroxypropyl)-5-(trifluoromethyl)pyrazolo[1,5-a]pyrimidine-2-carboxamide] | 1000 to 5000 nM | 1000 to 5000 nM |
| O=C(NC[C@H](O)CN1CCc2ccccc2C1)c1cn2cc(C3(O)COC3)ccc2n1 [Example 61, (S)—N-(3-(3,4-dihydroisoquinolin-2(1H)-yl)-2-hydroxypropyl)-6-(3-hydroxyoxetan-3-yl)imidazo[1,2-a]pyridine-2-carboxamide] | 1000 to 5000 nM | 1000 to 5000 nM |
| Cn1cc(-c2ccn3nc(C(=O)NC[C@H](O)CN4CCc5ccccc5C4)cc3n2)cn1 [Example 62, (S)—N-(3-(3,4-dihydroisoquinolin-2(1H)-yl)-2-hydroxypropyl)-5-(1-methyl-1H-pyrazol-4-yl)pyrazolo[1,5-a]pyrimidine-2-carboxamide] | 1000 to 5000 nM | 1000 to 5000 nM |
| Cn1ccc(-c2ccn3nc(C(=O)NC[C@H](O)CN4CCc5ccccc5C4)cc3n2)cc1=O [Example 63, (S)—N-(3-(3,4-dihydroisoquinolin-2(1H)-yl)-2-hydroxypropyl)-5-(1-methyl-2-oxo-1,2-dihydropyridin-4-yl)pyrazolo[1,5-a]pyrimidine-2-carboxamide] | 10 to 1000 nM | 1000 to 5000 nM |

Further lines, with some results ahead:

| IC50 (PRMT5/MEP50) | Structure (SMILES) | GI50 (Z-138 cells) |
| --- | --- | --- |
| 10 to 1000 nM | Cc1c(C(=O)NC[C@H](O)CN2CCc3ccccc3C2)nc2cnc(-c3cnn(C)c3)cn12 [Example 64, (S)—N-(3-(3,4-dihydroisoquinolin-2(1H)-yl)-2-hydroxypropyl)-3-methyl-6-(1-methyl-1H-pyrazol-4-yl)imidazo[1,2-a]pyrazine-2-carboxamide] | 10 to 1000 nM |
| 10 to 1000 nM | Cc1c(C(=O)NC[C@H](O)CN2CCc3ccccc3C2)nc2cnc(-c3ccn(C)c(=O)c3)cn12 [Example 65, (S)—N-(3-(3,4-dihydroisoquinolin-2(1H)-yl)-2-hydroxypropyl)-3-methyl-6-(1-methyl-2-oxo-1,2-dihydropyridin-4-yl)imidazo[1,2-a]pyrazine-2-carboxamide] | 10 to 1000 nM |
| 10 to 1000 nM | Cc1c(C(=O)NC[C@H](O)CN2CCc3ccccc3C2)nc2cnc(-c3ccc(=O)n(C)c3)cn12 [Example 66, (S)—N-(3-(3,4-dihydroisoquinolin-2(1H)-yl)-2-hydroxypropyl)-3-methyl-6-(1-methyl-6-oxo-1,6-dihydropyridin-3-yl)imidazo[1,2-a]pyrazine-2-carboxamide] | 10 to 1000 nM |
| 1000 to 5000 nM | Cc1ccn2nc(C(=O)NC[C@H](O)CN3CCc4ccccc4C3)c(F)c2n1 [Example 67] | > 5000 nM |
| > 5000 nM | O=C(NC[C@H](O)CN1CCc2ccccc2C1)c1nn2ccc(C(F)(F)F)nc2c1F [Example 68, (S)—N-(3-(3,4-dihydroisoquinolin-2(1H)-yl)-2-hydroxypropyl)-3-fluoro-5-(trifluoromethyl)pyrazolo[1,5-a]pyrimidine-2-carboxamide] | > 5000 nM |
| 10 to 1000 nM | O=C(NC[C@H](O)CN1CCc2ccccc2C1)c1cn2cc(N3CCC(F)C3)ccc2n1 (stereo partly drawn) [Example 70, N—((S)-3-(3,4-dihydroisoquinolin-2(1H)-yl)-2-hydroxypropyl)-6-(3-fluoropyrrolidin-1-yl)imidazo[1,2-a]pyridine-2-carboxamide] | 1000 to 5000 nM |
| 10 to 1000 nM | CN1CCN(c2ccc3nc(C(=O)NC[C@H](O)CN4CCc5ccccc5C4)cn3c2)CC1 [Example 71, (S)—N-(3-(3,4-dihydroisoquinolin-2(1H)-yl)-2-hydroxypropyl)-6-(4-methylpiperazin-1-yl)imidazo[1,2-a]pyridine-2-carboxamide] | 1000 to 5000 nM |
| 10 to 1000 nM | O=C(NC[C@H](O)CN1CCc2ccccc2C1)c1cn2cc(N3CCOCC3)ccc2n1 [Example 72, (S)—N-(3-(3,4-dihydroisoquinolin-2(1H)-yl)-2-hydroxypropyl)-6-morpholinoimidazo[1,2-a]pyridine-2-carboxamide] | 1000 to 5000 nM |
| 10 to 1000 nM | N#Cc1ccc(-c2cn3cc(C(=O)NC[C@H](O)CN4CCc5ccccc5C4)nc3cn2)cc1 [Example 74, (S)-6-(4-cyanophenyl)-N-(3-(3,4-dihydroisoquinolin-2(1H)-yl)-2-hydroxypropyl)imidazo[1,2-a]pyrazine-2-carboxamide] | 10 to 1000 nM |
| 10 to 1000 nM | O=C(NC[C@H](O)[C@@H](O)CN1CCc2ccccc2C1)c1cn2cc(C(F)(F)F)ccc2n1 [Example 76, N-((2S,3S)-4-(3,4-dihydroisoquinolin-2(1H)-yl)-2,3-dihydroxybutyl)-6-(trifluoromethyl)imidazo[1,2-a]pyridine-2-carboxamide] | 10 to 1000 nM |
| 10 to 1000 nM | O=C(NC[C@@H](O)[C@H](O)CN1CCc2ccccc2C1)c1cn2cc(C(F)(F)F)ccc2n1 [Example 77, N-((2R,3R)-4-(3,4-dihydroisoquinolin-2(1H)-yl)-2,3-dihydroxybutyl)-6-(trifluoromethyl)imidazo[1,2-a]pyridine-2-carboxamide] | 10 to 1000 nM |
| 10 to 1000 nM | Cc1nc(-c2ccc3nc(C(=O)NC[C@H](O)[C@@H](O)CN4CCc5ccccc5C4)cn3c2)no1 [Example 78, N-((2S,3S)-4-(3,4-dihydroisoquinolin-2(1H)-yl)-2,3-dihydroxybutyl)-6-(5-methyl-1,2,4-oxadiazol-3-yl)imidazo[1,2-a]pyridine-2-carboxamide] | 10 to 1000 nM |
